Results: US20190022225A1, “PROTOCOL FOR INCREASING LIFE EXPECTANCY IN A TEST SUBJECT” (Mayo Foundation for Medical Education and Research, priority 2015, published 2019)

Experiments:
[1] = test system: doxorubicin-induced senescent cells in p16-3MR mice; assay: Nutlin-3a treatment of p16-3MR transgenic mice with doxorubicin-induced senescence; format: in vivo, mouse; conditions: for cells with DNA damage (γH2AX positive) in lung sections: day 35, versus doxorubicin alone
Method: The capability of Nutlin-3a to remove senescent cells in vivo was determined in transgenic p16-3MR mice (see, e.g., International Application Publication No. WO2013/090645). The transgenic mouse comprises a p16^Ink4a promoter operatively linked to a trimodal fusion protein for detecting senescent cells and for selective clearance of senescent cells in these transgenic mice, which is illustrated in FIG. 7. The promoter, p16^Ink4a, which is transcriptionally active in senescent cells but not in non-senescent cells (see, e.g., Wang et al., J. Biol. Chem. 276:48655-61 (2001); Baker et al., Nature 479:232-36 (2011)) was engineered into a nucleic acid construct. 3MR (tri-modality reporter) is a fusion protein containing functional domains of a synthetic Renilla luciferase (LUC), monomeric red fluorescence protein (mRFP), and truncated herpes simplex virus (HSV)-1 thymidine kinase (tTK), which allows killing by ganciclovir (GCV) (see, e.g., Ray et al., Cancer Res. 64:1323-30 (2004))). The 3MR cDNA was inserted in frame with p16 in exon 2, creating a fusion protein containing the first 62 amino acids of p16, but not a full-length wild-type p16 protein. […] The p16^Ink4a gene promoter (approximately […]) was introduced upstream of a nucleotide sequence encoding a trimodal reporter fusion protein. Alternatively, a truncated p16^Ink4a promoter may be used (see, e.g., Baker et al., Nature, supra; International Application Publication No. WO2012/177927; Wang et al., supra).). Thus, the expression of 3MR is driven by the p16^Ink4a promoter in senescent cells only. The detectable markers, LUC and mRFP permitted detection of senescent cells by bioluminescence and fluorescence, respectively. The expression of tTK permitted selective killing of senescent cells by exposure to the pro-drug ganciclovir (GCV), which is converted to a cytotoxic moiety by tTK. Transgenic founder animals, which have a C57B16 background, were established and bred using known procedures for introducing transgenes into animals (see, e.g., Baker et al., Nature 479:232-36 (2011)). Female C57/BL6 p16-3MR mice were randomized into doxorubicin+Nutlin-3a treated or doxorubicin only treated groups (see FIG. 6). Senescence was induced by intraperitoneal administration of doxorubicin at 10 mg/kg to the mice ten days prior to administration of Nutlin-3a (Day −10). Nutlin-3a (25 mg/kg) was administered intraperitoneally daily from day 10 to day 24 post-doxorubicin treatment (Group=9 mice). Control mice (doxorubicin treated) were injected with equal volumes of PBS (Group=3 mice). Luminescence imaging (Xenogen Imaging system) was performed at Day 0 (i.e., 10 days post-doxorubicin treatment) as a baseline for each mouse (100% intensity).
Luminescence imaging of the mice was performed on day 7, 14, 21, 28, and 35 following the initiation of Nutlin-3a treatment. Reduction of luminescence (L) was calculated as: L=(Imaging post-Nutlin-3a treatment)/(Baseline Imaging) %. If L is greater than or equal to 100%, the number of senescent cells was not reduced. If L is less than 100%, then the number of senescent cells was reduced. Every mouse was calculated independently, and background was subtracted from each sample.
Experiments were performed to determine the effect of Nutlin-3a treatment on expression of genes associated with senescence. Groups of female C57/BL6 p16-3MR were treated as described above. Three weeks after the end of Nutlin-3a treatment (day 35), the doxorubicin treated mice (control) (N=3) and doxorubicin+Nutlin-3a-treated mice (N=6) were sacrificed. Skin and fat biopsies were collected for RNA extraction; fat biopsies were collected for detection of senescence-associated β-galactosidase; and lungs were flash frozen in cryoprotectant OCT media for cryostat sectioning. […]

[2] = test system: non-senescent aortic endothelial (Endo Aort) cells and pre-adipocytes (Pread); assay: Nutlin-3a toxicity, cell counts of non-senescent endothelial cells and pre-adipocytes; format: cell-based; conditions: 0, 2.5, 10 μM, 11 days
Method: Non-senescent aortic endothelial (Endo Aort) cells and pre-adipocytes (Pread) were also treated with varying concentrations (0, 2.5 μM, and 10 μM) of Nutlin-3a for a period of 11 days to assess Nutlin-3a toxicity, as described above. Cell counts were taken at the start at Day 0 (NS start) and at the end of Nutlin-3a treatment (NS 0). The difference between counts of cells not treated with Nutlin-3a on day 11 (NS 0) and cell counts from NS start reflects the cell growth over the indicated time period. […] Decrease in apparent survival between NS 0 and NS 2.5 and between NS 0 and NS 10 reflects a decrease in cell growth.

**Q.** With COc1ccc(C2=N[C@@H](c3ccc(Cl)cc3)[C@@H](c3ccc(Cl)cc3)N2C(=O)N2CCNC(=O)C2)c(OC(C)C)c1 [Nutlin-3a] as the molecule, how does the “luminescence associated with doxorubicin-induced senescence” value ([1]; 25 mg/kg intraperitoneally daily, day 10 to 24 post-doxorubicin) read?
**A.** reduced luminescence

**Q.** What about the “luminescence, statistical significance at time points” value ([1]; day 14, day 28 and day 35 after start of treatment) of the same molecule?
**A.** statistically significant decrease

**Q.** And the “mRNA of SASP factors (mmp-3, IL-6) and senescence markers (p21, p16, p53) in skin and fat” value ([1]; day 35, relative to actin mRNA)?
**A.** reduced expression

**Q.** What about the “cells with DNA damage (γH2AX positive) in lung sections” value [1] of the same molecule?
**A.** reduced the number of cells with doxorubicin-induced DNA damage

**Q.** And the “cells with DNA damage (γH2AX positive) in lung sections” value ([1]; listed as nutlin-3A)?
**A.** reduced the number of cells with DNA damage

**Q.** What about the “senescence-associated β-gal intensity in fat biopsies” value ([1]; three weeks after treatment, versus doxorubicin alone) of the same molecule?
**A.** reduced senescence-associated (SA) β-galactosidase (β-gal) intensity

**Q.** What about the “toxicity to non-senescent aortic endothelial cells and pre-adipocytes (percent growth)” value [2] of the same molecule?
**A.** reduces proliferation but is non-toxic
